Reference: patent US10266549B2, “ULK1 inhibitors and methods using same” (SALK INSTITUTE FOR BIOLOGICAL STUDIES, priority 2014, dated 2019)

Assays:
[1] = system: A549 lung cancer cells; assay: AnnexinV apoptosis analysis in A549 cells with mTOR inhibitor; assay type: cell-based
Experimental: (§1) A549 cells (ATCC #CCL185) and MEFs were seeded at a concentration of 2.5×10^5 cells/mL (i.e., 750,000 cells per 6 cm dish), grown overnight (18 hrs) and treated as indicted in the figure legends. Unless otherwise indicated, “starvation” is EBSS and “control” is DMEM with full serum for indicated timepoints. Samples for western blot were washed once in 1× ice cold PBS and lysed in boiling SDS lysis buffer (10 mM Tris […], 100 mM NaCl, 1% SDS). After trituration, lysates were equilibrated for protein levels using the BCA method (Pierce) and resolved on 8 to 15% SDS-PAGE gels, depending on the size of the protein. PVDF membranes were probed with indicated antibodies overnight according to the manufacturers instructions.
(§2) For flow cytometry analysis, cells were collected at the appropriate time point, washed once in PBS, trypsinized and pelleted. For Annexin V staining, cells were washed in 1× Annexin V buffer and treated as described by the Annexin V staining protocol (BD Pharmingen, San Diego, Calif.). Briefly, cells were resuspended in Annexin V buffer to a concentration of one million per mL, 100,000 cells were then stained with 5 μL of phycoerythrin (PE)-conjugated Annexin V antibody (BD Pharmingen, San Diego, Calif.) and 5 μL of 7-amino-actinomycin D (7AAD) and then incubated at room temperature for 15 minutes. 400 μL of Annexin V buffer was then added to each sample with gentle mixing. Stained cells were analyzed using a FACScan flow cytometer (Becton Dickinson, San Jose, Calif.). Flow cytometry data was analyzed using FlowJo 8.6 software (Tree Star Inc., Ashland, Oreg.).
There has been great interest in the role of autophagy in the survival of tumor cells, particular tumor cells faced with metabolic stress from chemotherapies or targeted therapeutics. We next examined whether compound 14 would promote apoptosis in tumor cells similar to the MEFs, selectively under conditions in which autophagy is actively engaged. […] Given that mTOR activity is a dominant regulator of ULK1 activity, and we previously noted that treatment of cells with mTOR catalytic inhibitors was sufficient to induce ULK1 activity, we examined the effect of adding in the ULK1 inhibitor in the context of treatment with mTOR catalytic inhibitors. Using a cell line well-established to be sensitive to mTORC1 inhibition, A549 lung cancer cells, we treated with escalating doses of ULK1 inhibitor while keeping a constant cytostatic growth arrest-inducing 1 micromolar dose of the mTOR catalytic inhibitor AZD8055. We observed that 5 μM compound 14 in combination with AZD8055 triggered apoptosis in 22% of A549 cells compared to 9% of the 5 μM compound 14 alone or 6% of those cells treated with AZD8055 alone. […]

[2] = system: murine Kras p53 lung carcinoma cells; assay: AnnexinV apoptosis in Kras p53 lung carcinoma cells; assay type: cell-based; conditions: selectively in the nutrient-starved state
Experimental: as §2
(§3) There has been great interest in the role of autophagy in the survival of tumor cells, particular tumor cells faced with metabolic stress from chemotherapies or targeted therapeutics. We next examined whether compound 14 would promote apoptosis in tumor cells similar to the MEFs, selectively under conditions in which autophagy is actively engaged. […]

[3] = target: ULK1 (Homo sapiens (Human), UniProt O75385); assay: ULK1 inhibition assay (Table 1); assay type: biochemical; conditions: * = tested as a mixture of regioisomers
Sequence of ULK1 (O75385 whole entry, species assumed): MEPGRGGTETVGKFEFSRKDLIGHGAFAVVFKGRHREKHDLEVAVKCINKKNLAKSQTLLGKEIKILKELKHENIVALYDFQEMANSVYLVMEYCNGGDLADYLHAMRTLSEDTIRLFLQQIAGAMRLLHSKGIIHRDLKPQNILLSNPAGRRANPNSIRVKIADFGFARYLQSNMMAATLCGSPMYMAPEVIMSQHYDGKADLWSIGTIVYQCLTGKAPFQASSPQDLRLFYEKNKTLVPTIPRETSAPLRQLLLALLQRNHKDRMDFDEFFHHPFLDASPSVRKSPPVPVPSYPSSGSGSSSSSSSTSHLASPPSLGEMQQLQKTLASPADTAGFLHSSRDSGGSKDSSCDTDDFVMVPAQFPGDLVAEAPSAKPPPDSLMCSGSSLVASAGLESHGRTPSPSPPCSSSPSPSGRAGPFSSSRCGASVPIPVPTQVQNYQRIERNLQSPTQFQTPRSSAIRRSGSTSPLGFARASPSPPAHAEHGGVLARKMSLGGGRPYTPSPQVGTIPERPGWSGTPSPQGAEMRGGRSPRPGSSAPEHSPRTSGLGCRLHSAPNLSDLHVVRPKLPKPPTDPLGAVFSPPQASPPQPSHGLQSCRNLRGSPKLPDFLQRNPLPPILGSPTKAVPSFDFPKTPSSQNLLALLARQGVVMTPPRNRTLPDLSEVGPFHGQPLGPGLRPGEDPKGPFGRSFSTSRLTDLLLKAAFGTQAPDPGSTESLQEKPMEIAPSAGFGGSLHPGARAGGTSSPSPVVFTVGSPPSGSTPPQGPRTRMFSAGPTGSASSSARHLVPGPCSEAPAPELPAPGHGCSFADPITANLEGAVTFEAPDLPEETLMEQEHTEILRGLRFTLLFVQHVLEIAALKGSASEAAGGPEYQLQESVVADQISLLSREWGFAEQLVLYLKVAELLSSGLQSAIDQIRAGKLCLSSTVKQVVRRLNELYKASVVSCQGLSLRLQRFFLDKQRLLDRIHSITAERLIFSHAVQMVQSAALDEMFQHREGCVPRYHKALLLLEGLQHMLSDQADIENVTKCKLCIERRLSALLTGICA

[4] = system: panel of 456 kinases; assay: DiscoveRx KINOMEscan competition binding assay; parameters: species or system human
Experimental: FIG. 7E: (top) The kinase selectivity profile for compound 14 was determined using the DiscoveRx KINOMEscan profiling service. Briefly, compound 14 was screened at a 1-μM dose for its ability to impair binding of a panel of 456 kinases to substrate in an in vitro binding assay. Scores for the primary screen hits are reported as a percent of the DMSO control (% Control). Lower scores reflect stronger inhibitory effects of compound 14 on the target kinase. Compound 14 was very selective, only inhibiting 8 kinases >95% and 19 kinases >90% when tested at 10 μM. (bottom) In vitro kinase assays were performed for selected kinases. These assays were performed in the presence of compound 14 in a dose-response manner to identify the IC50 value for compound 14 for each of these individual kinases. […] Of the remaining kinases, those kinases which IC50 value was less than what was identified from ULK2 are highlighted in brown.
Kinase inhibitor specificity profiling assays were first carried out using DiscoveRx KINOMEscan competition binding assay against a panel of 456 kinases (www dot discoverx dot corn) using 1 μM compound 14.
We next examined the specificity of compound 14 using the DiscoveRx KINOMEscan panel of 456 purified human kinases and subsequent competition binding assay.

[5] = system: U87MG glioblastoma cells; assay: AnnexinV apoptosis in U87MG cells; assay type: cell-based; conditions: selectively in the nutrient-starved state
Experimental: as §2, §3

[6] = system: A549 lung cancer cells; assay: Cyto-ID autophagy detection in A549 cells; assay type: cell-based; conditions: A549, 5 μM for 2 hr then 4 μM AZD8055 for 24 hr
Experimental: FIG. 9E is an immunoflourescence imaging of A549 cells treated in the presence or absence of 5 μM compound 14 for 2 hr followed by 4 μM of the mTOR catalytic inhibitor AZD8055 for 24 hr. Autophagic vacuoles were detected using the Cyto-ID autophagy detection kit and are visualized in green, while cell nuclei were counterstained by DAPI and are visualized in blue.
To test the ability of compound 14 to block autophagy and cell survival, initial studies were performed in A549 lung cancer cells, which are highly sensitive to mTOR inhibition. […] Next, we genetically assessed the requirement for ULK1 versus other kinases inhibited by compound 14 to induce autophagy after pharmacological mTOR inhibition. A robust high-throughput microscopy method for quantifying GFP-LC3 puncta was established using a PC3 prostate-cancer cell line stably expressing a GFP-LC3 construct. Using this assay, we performed a focused RNAi analysis of the top 20 kinases identified in the DiscovRx screen as best binding to compound 14. […] Strikingly, of the 18 kinases tested, only one kinase siRNA, ULK1, nearly fully abolished the LC3 puncta induced by the mTOR inhibitors (FIG. 9D).

[7] = system: MEFs; assay: AnnexinV apoptosis analysis in nutrient-deprived MEFs; assay type: cell-based, mouse
Experimental: as §1
For flow cytometry analysis, cells were collected at the appropriate time point, washed once in PBS, trypsinized and pelleted. For Annexin V staining, cells were washed in 1× Annexin V buffer and treated as described by the Annexin V staining protocol (BD Pharmingen, San Diego, Calif.). […] Stained cells were analyzed using a FACScan flow cytometer (Becton Dickinson, San Jose, Calif.). Flow cytometry data was analyzed using FlowJo 8.6 software (Tree Star Inc., Ashland, Oreg.). […]

[8] = panel of 456 kinases, tested at 10 μM as printed (method says 1 μM)

`CNC(=O)c1ccccc1Nc1nc(Nc2cc(OC)c(OC)c(OC)c2)ncc1Br` [compound 14, 2-(5-bromo-2-(3,4,5-trimethoxyphenylamino)pyrimidin-4-ylamino)-N-methylbenzamide] was tested, and the “apoptosis, % of A549 cells” value ([1]; 5 μM compound 14 alone) was 9%, the “apoptosis, % of A549 cells” value ([1]; 5 μM compound 14 in combination with 1 micromolar AZD8055) was 22% and the “induction of Annexin-V+ apoptotic A549 cells” value ([1]; 10 or 20 μM compound 14 with AZD8055) was “even more dramatically heightened”. For the same compound, the “apoptosis (AnnexinV+ cells)” value [2] was “promoted apoptosis”, the IC50 [3] was less than 0.2 µM and the “S(35) selectivity index” value ([4]; (number of non-mutant kinases with % Ctrl <35)/(number of non-mutant kinases tested)) was 0.123. For the same compound, the “number of kinases inhibited >90%” value [4, 8] was 19, the “number of kinases inhibited >95%” value [4, 8] was 8 and the “apoptosis (AnnexinV+ cells)” value [5] was “promoted apoptosis”. For the same compound, the “AZD8055-induced autophagy (Cyto-ID autophagy dye accumulation)” value [6] was “strongly suppressed”, the AnnexinV positive cells ([7]; MEFs, 24 h after amino-acid deprivation) was 50% and the cell death ([7]; glucose-deprived MEFs) was “promoted cell death”.
